ChEMBL document CHEMBL1201862, “PubChem BioAssay data set” (2004)
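Method: 48-hour compound exposure of cells in 96-well plates, five concentrations, linear interpolation of endpoints. GI50: concentration for 50% inhibition of growth.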 Calls of active or inactive are those of the source. Cut-off read from the data, not from the text of the source: active = GI50 up to about 1.1 µM and inactive = higher.

Legend:
Experiment in all cases: DTP human tumour cell line panel, 48 h
[1] = test system: DU-145
[2] = test system: M14
[3] = test system: A498
[4] = test system: SK-MEL-28
[5] = test system: SK-MEL-2
[6] = test system: UO-31
[7] = test system: SF-539
[8] = test system: NCI/ADR-RES
[9] = test system: K562
[10] = test system: KM12
[11] = test system: MDA-MB-231
[12] = test system: MDA-MB-435
[13] = test system: OVCAR-5
[14] = test system: CCRF-CEM
[15] = test system: T47D
[16] = test system: SN12C
[17] = test system: MDA-N
[18] = test system: TK-10
[19] = test system: UACC-62
[20] = test system: SW-620

Row | SMILES | GI50 [1] | GI50 [2] | GI50 [3] | GI50 [4] | GI50 [5] | GI50 [6] | GI50 [7] | GI50 [8] | GI50 [9] | GI50 [10] | GI50 [11] | GI50 [12] | GI50 [13] | GI50 [14] | GI50 [15] | GI50 [16] | GI50 [17] | GI50 [18] | GI50 [19] | GI50 [20]
1 | CC(C)C(O)(C(C)C)C(C)C | > 100 µM (inactive) | > 100 µM (inactive) | > 100 µM (inactive) | > 100 µM (inactive) | > 100 µM (inactive) | > 100 µM (inactive) | > 100 µM (inactive) | > 100 µM (inactive) | > 100 µM (inactive) | > 100 µM (inactive) | > 100 µM (inactive) | > 100 µM (inactive) | > 100 µM (inactive) | > 100 µM (inactive) | > 100 µM (inactive) | > 100 µM (inactive) | > 100 µM (inactive) | > 100 µM (inactive) | > 100 µM (inactive) | –
2 | S=C(N/N=C/c1ccccn1)N1CCCCC1 | 0.243 µM (active) | < 0.01 µM (active) | < 0.0461 µM (active) | 0.297 µM (active) | 0.0695 µM (active) | 0.0131 µM (active) | 0.135 µM (active) | < 0.01 µM (active) | < 0.01 µM (active) | < 0.0262 µM (active) | < 0.01 µM (active) | 0.163 µM (active) | – | < 0.01 µM (active) | < 0.01 µM (active) | < 0.0394 µM (active) | 0.271 µM (active) | 0.0205 µM (active) | 0.0497 µM (active) | < 0.0122 µM (active)
3 | CC(C)CCNC(=O)c1ccc(CNC(=O)/C=C/c2csc(-c3ccccc3)n2)cc1 | > 100 µM (inactive) | > 100 µM (inactive) | 19.9 µM (inactive) | 57.7 µM (inactive) | > 100 µM (inactive) | 19.6 µM (inactive) | > 100 µM (inactive) | 36.9 µM (inactive) | > 100 µM (inactive) | > 100 µM (inactive) | 33 µM (inactive) | > 100 µM (inactive) | > 100 µM (inactive) | > 100 µM (inactive) | 33.2 µM (inactive) | 64.3 µM (inactive) | > 100 µM (inactive) | 53.2 µM (inactive) | > 100 µM (inactive) | > 100 µM (inactive)
4 | CC(C)N1C=[N+](C(C)C)CC1 | > 100 µM (inactive) | > 100 µM (inactive) | > 100 µM (inactive) | > 100 µM (inactive) | > 100 µM (inactive) | > 100 µM (inactive) | > 100 µM (inactive) | > 100 µM (inactive) | > 100 µM (inactive) | > 100 µM (inactive) | > 100 µM (inactive) | > 100 µM (inactive) | > 100 µM (inactive) | > 100 µM (inactive) | > 100 µM (inactive) | > 100 µM (inactive) | > 100 µM (inactive) | > 100 µM (inactive) | – | > 100 µM (inactive)
5 | CC1=NN(c2ccccc2)C(=O)/C1=C/c1ccc(O)cc1 | > 100 µM (inactive) | > 100 µM (inactive) | > 100 µM (inactive) | > 100 µM (inactive) | > 100 µM (inactive) | – | > 100 µM (inactive) | > 100 µM (inactive) | > 100 µM (inactive) | > 100 µM (inactive) | > 100 µM (inactive) | > 100 µM (inactive) | > 100 µM (inactive) | > 100 µM (inactive) | > 100 µM (inactive) | > 100 µM (inactive) | > 100 µM (inactive) | > 100 µM (inactive) | > 100 µM (inactive) | > 100 µM (inactive)
6 | CS/C(N)=N/c1cccc2ccccc12 | > 10 µM (inactive) | > 10 µM (inactive) | > 10 µM (inactive) | > 10 µM (inactive) | > 10 µM (inactive) | > 10 µM (inactive) | > 10 µM (inactive) | > 10 µM (inactive) | > 10 µM (inactive) | > 10 µM (inactive) | > 10 µM (inactive) | > 10 µM (inactive) | – | > 10 µM (inactive) | > 10 µM (inactive) | > 10 µM (inactive) | > 10 µM (inactive) | > 10 µM (inactive) | > 10 µM (inactive) | > 10 µM (inactive)
7 | CC(=O)O[C@H]1C(=O)[C@@]2(C)[C@H]([C@H](OC(=O)c3ccncc3)[C@]3(O)C[C@H](OC(=O)[C@H](O)[C@@H](NC(=O)c4ccccc4)c4ccccc4)C(C)=C1C3(C)C)[C@]1(OC(C)=O)CO[C@@H]1C[C@@H]2O | 11.6 µM (inactive) | 7.06 µM (inactive) | > 15.5 µM (inactive) | > 11.6 µM (inactive) | 6.71 µM (inactive) | > 25 µM (inactive) | 0.875 µM (active) | > 25 µM (inactive) | 0.953 µM (active) | 2.61 µM (inactive) | > 20 µM (inactive) | 0.714 µM (active) | 10 µM (inactive) | 0.875 µM (active) | > 5.94 µM (inactive) | > 16.4 µM (inactive) | 0.877 µM (active) | > 25 µM (inactive) | 2.66 µM (inactive) | 1.56 µM (inactive)
